Assay results: patent US8329705B2, “Substituted triazolo-pyrazine compounds” (ArQule, Inc., priority 2009, dated 2012)

Assays:
MDA-MB-231 cancer cells = assay: MTS assay, MDA-MB-231 cells; assay type: cell-based; parameters: concentration or dose not given beside the values
Description: (§1) Cells were maintained at 37° C., 5% CO2 in DMEM media supplemented with 1% fetal bovine serum, penicillin/streptomycin and fungizone (Invitrogen). Cells were seeded into 96-well tissue culture plates at 3000 per well and cultured at 37° C. for 18 hours. Test compounds were dissolved and diluted to 300× in DMSO then diluted 1:40 in DMEM. Cells were incubated with test compounds for 72 hours followed by incubation with tetrazolium compound (3-(4,5-dimethylthiazol-2-yl)-5-(3-carboxymethoxyphenyl)-2-(4-sulfophenyl)-2H-tetrazolium, inner salt; MTS) and the electron coupling reagent, phenazine methosulfate (PMS) for 4 hours. […] The ability of compounds to inhibit cell growth in this assay is correlated with the reduction of dehydrogenase enzyme activity found in metabolically active cells. The measurement of the absorbance of the formazan was assessed using a Victor (Perkin Elmer) microplate reader at 492 nm. The calculated IC50 value is the concentration of the test compound that causes a 50% decrease in the absorbance. Percent inhibition by representative compounds of the present invention in MDA-MB231 and DLD-1 cancer cells is shown in Table 4.

DLD-1 cancer cells = assay: MTS assay, DLD-1 cells; assay type: cell-based; parameters: concentration or dose not given beside the values
Description: as §1

FGFR2 (N549H) = biological target: T1, FGFR2 (N549H) (Homo sapiens, UniProt P21802, N549H); assay: FGFR2 kinase activity assay (fluorescent ELISA); assay type: biochemical; conditions: 30 μM compound
T1 construct: purchased Millipore 14-742
Description: A fluorescent ELISA assay was developed to identify and characterize inhibitors of FGFR2 kinase. This heterogeneous assay utilized a biotinylated peptide with a tyrosine motif as a substrate and an anti-phospho-tyrosine antibody to measure phosphorylation of the substrate. The reaction was initiated by adding a test compound, 37 uM Pyk2 substrate (Midwest Biotech, cat. #MBT2383), 12.5 uM ATP (Roche, cat. #11 140 965 001), and 0.5 uM FGFR2 enzyme (Millipore, cat. #14-742) sequentially to a non-binding polypropylene V-well plate. All reagents were in assay buffer consisting of: 50 mM Tris-HCL, 0.02 mg/mL BSA, 10 mM MgCl2, 0.1 mM Na3VO4, 1 mM EGTA, […], 0.01% NP-40, 2 mM DTT, 10% Glycerol. The reaction was incubated for 60 minutes. As the reaction proceeded, FGFR2 phosphorylated tyrosines in the peptide. The reaction mixture was then moved to a blocked streptavidin coated Nunc Maxisorb plate (coated with 100 ng streptavidin from Pierce (cat #15-124) per well) allowing for the capture of the biotinylated peptide. Peptide was captured for 30 minutes at room temperature, the phosphorylation of peptide continues during this phase. The reaction was stopped by washing the Streptavidin plate 6 times with TBST. Phosphorylated peptide was detected by adding anti-phospho tyrosine antibody (purchased from Cell Signaling, cat. #9411, diluted 1:3000), unbound antibody was removed by washing 6 times with TBST. Secondary detection was performed using Alkaline Phosphatase tagged goat anti-mouse antibody (purchased from Pierce, cat. #31320, diluted 1:4000) for one hour. Unbound secondary antibody was removed by washing 6 times with TBST.
The fluorescent readout was initiated by the addition of Promega Attophos substrate (purchased from Promega; Kit catalog number: S1000, dilution=6 mg/10 mL), which when dephosphorylated by Alkaline phosphatase emitted a fluorescent signal of […] when excited by a signal […]. This reading was done on the Perkin Elmer Envision system. […] The signal was directly proportional to the activity of FGFR2 and compound inhibition of FGFR2 was monitored by a decrease in signal.

T1 sequence (P21802 22-821 N549H): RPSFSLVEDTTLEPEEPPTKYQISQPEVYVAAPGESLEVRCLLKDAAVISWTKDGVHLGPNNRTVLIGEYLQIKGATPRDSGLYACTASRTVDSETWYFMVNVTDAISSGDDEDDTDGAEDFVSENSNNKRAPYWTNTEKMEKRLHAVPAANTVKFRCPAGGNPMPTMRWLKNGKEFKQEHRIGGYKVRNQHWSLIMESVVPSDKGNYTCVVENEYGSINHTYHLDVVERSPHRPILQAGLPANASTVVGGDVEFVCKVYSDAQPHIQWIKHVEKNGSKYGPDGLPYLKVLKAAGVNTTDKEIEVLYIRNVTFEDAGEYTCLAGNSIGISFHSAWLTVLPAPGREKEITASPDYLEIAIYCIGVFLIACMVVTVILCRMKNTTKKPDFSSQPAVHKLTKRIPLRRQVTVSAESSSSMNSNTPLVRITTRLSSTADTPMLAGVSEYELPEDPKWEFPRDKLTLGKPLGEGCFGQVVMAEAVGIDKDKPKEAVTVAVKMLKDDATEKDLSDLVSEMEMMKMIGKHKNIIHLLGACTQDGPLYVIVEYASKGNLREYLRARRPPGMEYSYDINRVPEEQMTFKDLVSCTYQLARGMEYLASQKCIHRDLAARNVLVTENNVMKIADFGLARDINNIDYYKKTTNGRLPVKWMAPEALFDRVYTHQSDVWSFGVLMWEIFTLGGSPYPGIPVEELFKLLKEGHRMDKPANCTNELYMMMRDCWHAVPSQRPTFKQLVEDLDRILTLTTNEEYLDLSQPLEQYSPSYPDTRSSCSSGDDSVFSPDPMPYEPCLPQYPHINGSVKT

Row | inhibition at 30 µM (FGFR2 (N549H)) | Compound | MDA-MB-231, MTS, 72 hours (% inhibition) (MDA-MB-231 cancer cells) | DLD-1, MTS, 72 hours (% Inhibition) (DLD-1 cancer cells)
1 | 54.6% | Cc1ccccc1Nc1nccn2c(N)nnc12 [Compound 157, N^8-(2-methylphenyl)[1,2,4]triazolo[4,3-a]pyrazine-3,8-diamine] | 98% | 97%
2 | 68.6% | Nc1nnc2c(Nc3cc(Cl)ccc3Cl)nccn12 [Compound 160, N^8-(2,5-dichlorophenyl)[1,2,4]triazolo[4,3-a]pyrazine-3,8-diamine] | 81% | 53%
